“Also recorded” adds a separate entry of the source. Peptide text beside a SMILES is read from it.
Legend:
Hsp70 = Hsp70 induction in HepG2 cells ([3H]-leucine labeling, denaturing immunoprecipitation); format: cell-based, human; details: HepG2
Protocol: HepG2 cells were grown up to 95% confluence and then preincubated for 4 hours in a 37° C. incubator with serum-free minimum essential medium (MEM), followed by radiolabeling with 3H-leucine (150 μCi/ml) dissolved in serum-free, leucine-free medium. Preincubation and labeling medium each contained 1.5% bovine serum albumin (BSA) plus different concentrations of ALLN as indicated. After labeling, cells were collected and lysed, and Hsp70 was immunoprecipitated under denaturing conditions as described under Experimental Details. Cell lysates containing an equal amount of TCA-insoluble radioactivity were used for immunoprecipitation. (A): The immunoprecipitates were analyzed by sodium dodecyl sulfate-polyacryamide gel electrophoresis (SDS-PAGE) and fluorography. Numbers on the left-hand side denote molecular markers. (B): The Hsp70 radioactivity was quantitated by scintillation counting and plotted. All the values were presented as means±SD from three individual culture dishes.
(§1) FIGS. 3A-3B: Effects of the other protease inhibitors on Hsp70 biosynthesis in HepG2 cells. HepG2 cells were preincubated in serum-free MEM containing either 1.5% BSA alone (Control), or BSA plus 40 μg/ml of ALLN, 40 μg/ml of ALLM, 50 μg/ml of leupeptin, 50 μg/ml of pepstatin A, 25 μg/ml of E-64d, 1 mM of phenylmethylsulfonyl fluoride (PMSF), 100 KIU/ml of apotinin, 1 mM of Benzamidine (Benz), 200 μM of calpain inhibitor peptide (CIP). Radiolabeling (in the presence of protease inhibitors), lysis and immunoprecipitation were performed as described in FIG. 1. The Hsp70 specific radioactivity (A) and the amount of total incorporated radioactivity (TCA-cpm) (B) were compared with each other. All the values were presented as the mean±SD from three individual culture dishes.
FIGS. 9A-9B: Effects of proteasome inhibitors on Hsp70 induction. HepG2 cells were preincubated with the proteasome inhibitors MG132 at a final concentration of either 10 μM or 30 μM (A), or lactacystin at 10 μM (B) for 4 hours under conditions described in FIG. 3. These cells were then subjected to radiolabeling (30 min), cell lysis, and immunoprecipitation with anti-Hsp70 antibody. The experiments with MG132 (A) were repeated twice; the effects of lactacystin (B) were studied in triplicate culture dishes.
ALLN, leupeptin, mouse anti-human Hsp72/73 monoclonal antibody, a secondary antibody conjugated with horseradish peroxidase (HRP) (goat anti-rabbit immunoglubin G [IgG]), and rabbit anti-rat IgG antibody were from Boehringer Mannheim Co. Anti-Human Hsp25 and anti-human Hsp60 monoclonal antibodies, ALLM, Calpain inhibitor peptide (CIP), dimethyl sulfoxide (DMSO) and dithiothreitol (DTT) were from Sigma. Human Hsp70 oligonucleotide probe was from Oncogene Science. This oligonucleotide was ^32P labeled at the 5′-end by T4 Kinase, which was from Biolabs. ^32P was from ICN Pharmaceutical Inc. L-[4,5-^3H] leucine was from Amersham Co. Anti-human Bip (immunoglobulin heavy chain binding protein, also called Grp78), anti-human Hsp27, anti-human Hsp60, and anti-human Hsp90 monoclonal antibodies were from Stress Genes. Anti-human Hsp86 and Hsp104 antibodies were from Affinity Bioreagent Inc. Nitrocellular transfer and immobilization membranes were from Schleicher & Schuell, Keene, N.H. RNA extraction kits were from Biotect, Tex. The polyclonal antibody against the human HSF1 protein was a generous gift from Dr. Carl Wu of the National Institute of Health (Rabindran, et al., 1993). Ethylene glycol bis(succunimidylsuccinate) (EGS) was from Pierce. Cbz-leucyl-leucyl-leucinal (MG132) was a gift of Dr. H. Ploegh at the Massachusetts Institute of Technology. All the other tissue culture supplies and chemicals were obtained from supplies as previously described (Dixon, et al., 1991). The HepG2 cell culture conditions were maintained as previously described (Dixon, et al., 1991).

proteasomes = details: Rock, et al., 1994; cited from earlier work
[1] = system: cysteine proteases, calpain and cathepsin B; details: Rock, et al., 1994; cited from earlier work
HepG2 cells = assay: Total incorporation of radiolabel (TCA cpm) as indicator of cell toxicity in HepG2 cells; format: cell-based, human; details: MG132 10 or 30 μM, lactacystin 10 μM, data not shown
Protocol: as §1
Preincubation and labeling media each contained either 1.5% bovine serum albumin (BSA) alone, or BSA plus ALLN (40 μg/ml except as otherwise indicated), or BSA plus other protease inhibitors at concentrations indicated in the figure legends. At the indicated times, cells were removed from the 37° C. incubator and placed on ice, washed with cold phosphate-buffer saline (PBS) twice and lysed with lysis buffer containing 1% Triton X-100 (TX100), 1% deoxycholic acid (DOC) and 0.1% SDS in PBS containing proteinase inhibitors: 2 mM phenylmethylsulfonyl fluoride (PMSF); 2 μg/ml ALLN; 2 μg/ml leupeptin; and 2 μg/ml aprotinin. After a 30 min. incubation with lysis buffer at 4° C., the lysates were centrifuged at 14,000 g in a microcentrifuge for 5 min., and the supernatants were adjusted to 1% SDS concentration and boiled for 5 min. to denature the proteins. 1% TX100 was then added to dilute the lysates to a final concentration of 0.1% SDS. Cell lysates containing equal amounts of trichloroacetic acid (TCA)-insoluble radioactivity were used for immunoprecipitations by incubating with individual monoclonal antibody (1 μg/ml) for 2.5 hours at 4° C. Protein-A Sepharose 4B was added afterwards and the lysates incubated for another 1.5 hours at 4° C. to collect the immunocomplexes. […]

[2] = system: cysteine protease, serine protease, trypsin or chymotrypsin; details: even upon extended exposure; Ward 1995, Fenteany 1995; cited from earlier work

SMILES | induction of Hsp70 by protease inhibitors (FIG. 3A) (Hsp70; 4 h pre-treatment, ALLN 40, ALLM 40, leupeptin 50, pepstatin A 50, E-64d 25 μg/ml, PMSF 1 mM, aprotinin 100 KIU/ml) | inhibition of proteasomes (proteasomes) | activities against calpain and cathepsin B [1] | induction of Hsp70 levels by proteasome inhibitors (FIG. 9) (Hsp70; 4 hours, MG132 10 μM or 30 μM, lactacystin 10 μM, 30 min labeling) | toxicity to the cells (TCA-precipitable radioactivities) (HepG2 cells) | effect on cysteine protease, serine protease, trypsin or chymotrypsin [2]
CSCC[C@@H](C=O)NC(=O)[C@H](CC(C)C)NC(=O)[C@H](CC(C)C)NC(C)=O [ALLM, N-acetyl-leucyl-leucyl-methioninal] (Ac-Leu-Leu-Met-aldehyde) | significantly induce; also recorded: less ability to induce Hsp70 levels | potent inhibitors | significant activities |  |  | 
CC(=O)N[C@@H](CSC(=O)[C@]1([C@@H](O)C(C)C)NC(=O)[C@H](C)[C@@H]1O)C(=O)O [lactacystin] |  |  |  | induced Hsp70 levels dramatically | without obvious toxicity | no detectable effect

From US20020111314A1, “Novel stimulation of gene expression and protein synthesis of heat shock protein 72/73 (Hsp 70)” (The Trustees of Columbia University, priority 1995, published 2002)
